Test results from PMC4979471 (Cell Death Discovery, 2015).
Like-named read-outs stand apart in the source and are kept apart here.

Experiments:
Experiment in all cases: Kinase selectivity, P33-radiolabeled assay
Type in all cases: biochemical
Details in all cases: 10 μM ATP
BMPR2 = molecular target: T1, BMPR2 (Homo sapiens, UniProt Q13873)
T1 construct: purchased Reaction Biology Corp
T1 sequence (Q13873 27-1038): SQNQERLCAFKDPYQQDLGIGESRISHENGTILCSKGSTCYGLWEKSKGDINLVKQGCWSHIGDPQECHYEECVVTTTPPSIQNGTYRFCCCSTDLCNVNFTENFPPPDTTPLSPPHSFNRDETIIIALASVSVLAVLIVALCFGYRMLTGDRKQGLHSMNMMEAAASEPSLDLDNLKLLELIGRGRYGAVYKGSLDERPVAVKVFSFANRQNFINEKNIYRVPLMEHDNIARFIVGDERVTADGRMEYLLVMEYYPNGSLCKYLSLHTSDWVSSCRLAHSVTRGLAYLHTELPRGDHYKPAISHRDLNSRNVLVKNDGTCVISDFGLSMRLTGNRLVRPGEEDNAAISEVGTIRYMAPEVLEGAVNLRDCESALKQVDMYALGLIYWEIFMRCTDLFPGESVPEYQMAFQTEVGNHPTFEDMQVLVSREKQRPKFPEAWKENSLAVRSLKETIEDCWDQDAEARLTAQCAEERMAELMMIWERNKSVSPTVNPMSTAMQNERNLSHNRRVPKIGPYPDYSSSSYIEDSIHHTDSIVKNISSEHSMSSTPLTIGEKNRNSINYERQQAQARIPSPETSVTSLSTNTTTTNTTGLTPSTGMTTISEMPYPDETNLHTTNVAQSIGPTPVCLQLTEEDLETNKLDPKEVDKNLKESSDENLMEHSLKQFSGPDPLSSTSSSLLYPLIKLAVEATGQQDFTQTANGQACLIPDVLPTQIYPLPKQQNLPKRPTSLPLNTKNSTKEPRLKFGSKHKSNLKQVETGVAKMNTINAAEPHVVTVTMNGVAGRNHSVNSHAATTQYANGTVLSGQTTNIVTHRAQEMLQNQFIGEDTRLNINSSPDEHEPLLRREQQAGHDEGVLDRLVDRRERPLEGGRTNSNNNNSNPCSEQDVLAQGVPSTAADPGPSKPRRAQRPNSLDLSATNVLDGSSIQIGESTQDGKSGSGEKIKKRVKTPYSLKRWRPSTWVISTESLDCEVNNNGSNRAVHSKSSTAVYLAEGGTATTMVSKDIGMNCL
How it was run: (§1)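 ATP at 10 μM; test article at 10 μM, single point, two replicates. Output is activity as % of DMSO.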

CDK5/p25 = molecular target: T2, CDK5/p25 (Homo sapiens, UniProt Q00535)
T2 construct: purchased Reaction Biology Corp
How it was run: as §1

CHK1 = molecular target: T3, CHK1 (Homo sapiens, UniProt O14757)
T3 construct: purchased Reaction Biology Corp
T3 sequence (O14757 1-476): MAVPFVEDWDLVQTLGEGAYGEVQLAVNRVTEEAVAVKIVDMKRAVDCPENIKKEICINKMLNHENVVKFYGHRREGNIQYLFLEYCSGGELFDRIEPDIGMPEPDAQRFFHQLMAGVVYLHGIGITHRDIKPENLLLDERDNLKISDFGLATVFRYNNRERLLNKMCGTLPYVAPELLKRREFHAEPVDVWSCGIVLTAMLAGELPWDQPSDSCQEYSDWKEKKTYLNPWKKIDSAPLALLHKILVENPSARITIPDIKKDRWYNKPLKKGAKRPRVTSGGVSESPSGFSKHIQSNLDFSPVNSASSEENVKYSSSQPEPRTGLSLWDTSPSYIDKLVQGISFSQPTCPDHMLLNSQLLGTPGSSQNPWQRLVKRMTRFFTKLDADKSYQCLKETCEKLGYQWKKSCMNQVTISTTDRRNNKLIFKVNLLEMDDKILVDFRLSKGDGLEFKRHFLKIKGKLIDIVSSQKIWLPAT
How it was run: as §1

ERBB2/HER2 = molecular target: T4, ERBB2/HER2 (Homo sapiens, UniProt P04626)
T4 construct: purchased Reaction Biology Corp
How it was run: as §1

ZAK/MLTK = molecular target: T5, ZAK/MLTK (Homo sapiens, UniProt Q9NYL2)
T5 construct: purchased Reaction Biology Corp
How it was run: as §1

c-MER = molecular target: T6, c-MER (Homo sapiens, UniProt Q12866)
T6 construct: purchased Reaction Biology Corp
T6 sequence (Q12866 21-999): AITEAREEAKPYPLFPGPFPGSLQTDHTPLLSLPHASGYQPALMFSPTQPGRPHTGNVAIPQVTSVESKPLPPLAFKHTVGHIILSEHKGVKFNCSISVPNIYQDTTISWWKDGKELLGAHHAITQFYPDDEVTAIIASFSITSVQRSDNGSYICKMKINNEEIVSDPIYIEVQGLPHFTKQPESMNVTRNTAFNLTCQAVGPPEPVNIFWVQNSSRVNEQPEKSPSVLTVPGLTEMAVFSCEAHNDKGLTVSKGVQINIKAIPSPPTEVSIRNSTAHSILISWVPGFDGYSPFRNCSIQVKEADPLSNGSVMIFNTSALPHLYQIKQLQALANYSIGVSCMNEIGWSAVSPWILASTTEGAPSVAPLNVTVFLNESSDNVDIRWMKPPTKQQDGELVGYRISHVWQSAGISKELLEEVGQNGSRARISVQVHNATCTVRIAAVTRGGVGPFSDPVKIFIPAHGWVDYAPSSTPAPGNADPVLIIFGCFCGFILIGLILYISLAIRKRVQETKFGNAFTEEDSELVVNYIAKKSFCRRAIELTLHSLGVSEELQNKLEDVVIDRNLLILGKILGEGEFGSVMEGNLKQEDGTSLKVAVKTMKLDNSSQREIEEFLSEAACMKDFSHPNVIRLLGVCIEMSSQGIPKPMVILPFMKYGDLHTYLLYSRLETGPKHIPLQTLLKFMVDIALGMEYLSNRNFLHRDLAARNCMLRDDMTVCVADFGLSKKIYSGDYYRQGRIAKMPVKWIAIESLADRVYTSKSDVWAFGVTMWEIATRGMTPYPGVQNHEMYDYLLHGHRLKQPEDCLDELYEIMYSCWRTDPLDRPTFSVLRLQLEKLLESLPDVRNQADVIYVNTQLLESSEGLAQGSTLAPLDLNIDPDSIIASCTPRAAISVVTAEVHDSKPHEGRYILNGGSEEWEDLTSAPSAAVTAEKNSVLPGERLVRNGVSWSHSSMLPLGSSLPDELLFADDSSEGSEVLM
How it was run: as §1

[1] = read-out: % Enzyme Activity (relative to DMSO controls) AVG
[2] = read-out: % Enzyme Activity (relative to DMSO controls) Data 1
[3] = read-out: % Enzyme Activity (relative to DMSO controls) Data 2

T2 sequence (Q00535 whole entry): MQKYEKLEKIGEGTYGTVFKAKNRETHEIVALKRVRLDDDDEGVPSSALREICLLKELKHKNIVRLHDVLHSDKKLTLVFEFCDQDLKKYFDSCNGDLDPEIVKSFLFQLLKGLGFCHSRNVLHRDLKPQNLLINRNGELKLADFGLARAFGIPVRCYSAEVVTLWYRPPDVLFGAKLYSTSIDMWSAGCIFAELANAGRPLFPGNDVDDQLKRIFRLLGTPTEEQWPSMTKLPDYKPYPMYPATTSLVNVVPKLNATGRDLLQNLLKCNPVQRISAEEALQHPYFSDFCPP
T2 sequence (Q15078 99-307 partner limits assumed): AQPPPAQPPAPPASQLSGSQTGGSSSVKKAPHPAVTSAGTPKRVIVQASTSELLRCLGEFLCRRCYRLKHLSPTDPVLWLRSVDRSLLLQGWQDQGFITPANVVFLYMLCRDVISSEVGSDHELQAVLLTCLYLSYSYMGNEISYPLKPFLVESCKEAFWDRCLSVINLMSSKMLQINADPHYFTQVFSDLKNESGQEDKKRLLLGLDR
T4 sequence (P04626 23-1255): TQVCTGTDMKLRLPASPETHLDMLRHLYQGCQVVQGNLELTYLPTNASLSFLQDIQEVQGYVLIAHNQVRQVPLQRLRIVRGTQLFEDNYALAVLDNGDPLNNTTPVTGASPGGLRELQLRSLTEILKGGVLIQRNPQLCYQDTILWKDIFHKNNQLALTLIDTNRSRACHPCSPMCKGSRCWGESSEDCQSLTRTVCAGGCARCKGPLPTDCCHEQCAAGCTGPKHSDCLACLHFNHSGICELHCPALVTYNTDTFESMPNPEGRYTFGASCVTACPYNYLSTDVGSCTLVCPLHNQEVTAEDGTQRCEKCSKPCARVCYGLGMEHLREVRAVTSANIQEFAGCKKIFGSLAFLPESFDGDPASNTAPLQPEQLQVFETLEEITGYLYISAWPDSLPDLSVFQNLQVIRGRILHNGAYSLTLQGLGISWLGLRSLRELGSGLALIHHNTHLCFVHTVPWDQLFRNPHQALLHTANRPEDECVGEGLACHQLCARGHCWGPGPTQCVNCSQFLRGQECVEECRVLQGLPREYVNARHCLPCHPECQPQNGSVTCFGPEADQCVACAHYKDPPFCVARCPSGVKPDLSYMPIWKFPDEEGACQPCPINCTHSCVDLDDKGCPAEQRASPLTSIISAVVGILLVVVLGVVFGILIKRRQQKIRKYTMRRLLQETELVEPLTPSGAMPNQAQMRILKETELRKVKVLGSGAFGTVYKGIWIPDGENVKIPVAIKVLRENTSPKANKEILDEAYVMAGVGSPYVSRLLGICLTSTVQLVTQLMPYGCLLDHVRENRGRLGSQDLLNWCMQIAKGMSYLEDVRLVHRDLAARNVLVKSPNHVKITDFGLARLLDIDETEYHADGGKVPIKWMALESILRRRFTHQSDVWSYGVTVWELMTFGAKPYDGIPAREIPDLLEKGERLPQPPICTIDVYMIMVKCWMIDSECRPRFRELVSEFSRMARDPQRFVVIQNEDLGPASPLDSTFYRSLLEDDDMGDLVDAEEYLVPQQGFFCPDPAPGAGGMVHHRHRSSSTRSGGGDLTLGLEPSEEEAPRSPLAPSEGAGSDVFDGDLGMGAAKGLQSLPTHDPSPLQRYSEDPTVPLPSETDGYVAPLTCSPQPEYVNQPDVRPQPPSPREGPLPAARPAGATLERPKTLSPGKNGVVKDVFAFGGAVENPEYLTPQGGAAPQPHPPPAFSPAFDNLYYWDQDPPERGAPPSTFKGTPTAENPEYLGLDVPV
T5 sequence (Q9NYL2 whole entry): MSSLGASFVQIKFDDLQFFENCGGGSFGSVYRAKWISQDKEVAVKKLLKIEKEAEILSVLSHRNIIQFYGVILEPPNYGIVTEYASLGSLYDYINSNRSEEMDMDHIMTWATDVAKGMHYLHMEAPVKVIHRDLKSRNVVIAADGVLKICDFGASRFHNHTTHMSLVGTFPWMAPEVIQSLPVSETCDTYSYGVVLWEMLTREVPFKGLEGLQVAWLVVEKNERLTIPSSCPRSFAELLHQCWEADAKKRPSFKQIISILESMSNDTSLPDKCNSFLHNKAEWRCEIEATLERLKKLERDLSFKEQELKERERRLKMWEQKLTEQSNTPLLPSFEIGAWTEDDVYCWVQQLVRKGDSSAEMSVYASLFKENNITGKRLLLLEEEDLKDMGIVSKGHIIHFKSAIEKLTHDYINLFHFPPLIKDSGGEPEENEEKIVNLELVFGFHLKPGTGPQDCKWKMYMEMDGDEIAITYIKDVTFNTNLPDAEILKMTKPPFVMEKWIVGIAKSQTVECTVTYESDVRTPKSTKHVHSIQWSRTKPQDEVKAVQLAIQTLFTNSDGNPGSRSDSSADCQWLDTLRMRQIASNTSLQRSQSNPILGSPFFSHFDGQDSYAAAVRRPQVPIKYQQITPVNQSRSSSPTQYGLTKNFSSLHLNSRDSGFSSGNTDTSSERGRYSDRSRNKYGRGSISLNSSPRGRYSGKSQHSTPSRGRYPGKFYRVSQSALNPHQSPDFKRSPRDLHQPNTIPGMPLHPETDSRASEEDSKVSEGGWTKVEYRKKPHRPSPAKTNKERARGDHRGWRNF

`CC(C)(C)C(=O)N1N=CC[C@H]1c1ccccc1` [GSK′963] gave a remaining activity at 10 µM (BMPR2; [1]) of 103%, a remaining activity at 10 µM (BMPR2; [2]) of 102% and a remaining activity at 10 µM (BMPR2; [3]) of 103%. For the same compound, the remaining activity at 10 µM (CDK5/p25; [1]) was 97%, the remaining activity at 10 µM (CDK5/p25; [2]) was 98.1% and the remaining activity at 10 µM (CDK5/p25; [3]) was 95.8%. The remaining activity at 10 µM (CHK1; [1]) was 115%, the remaining activity at 10 µM (CHK1; [2]) was 122% and the remaining activity at 10 µM (CHK1; [3]) was 109%. For the same compound, the remaining activity at 10 µM (ERBB2/HER2; [1]) was 105%, the remaining activity at 10 µM (ERBB2/HER2; [2]) was 102% and the remaining activity at 10 µM (ERBB2/HER2; [3]) was 107%. For the same compound, the remaining activity at 10 µM (ZAK/MLTK; [1]) was 105%, the remaining activity at 10 µM (ZAK/MLTK; [2]) was 106% and the remaining activity at 10 µM (ZAK/MLTK; [3]) was 104%. It also gave a remaining activity at 10 µM (c-MER; [1]) of 94.8%, a remaining activity at 10 µM (c-MER; [2]) of 94.5% and a remaining activity at 10 µM (c-MER; [3]) of 95.1%.
